Assay results published in patent US4349546A, “D-Allose derivative and preparation method therefor” (Wakamoto Pharmaceutical Co., Ltd., priority 1980, dated 1982).

Tests used:
lung autotumor = assay: Inhibition of mouse lung autotumor induced by ethylnitrosourea (Test Example 5); assay type: in vivo, DDY mice
Procedure: 100 mg/kg of ethylnitrosourea was given intraperitoneally to DDY mice 3 to 4 days prior to delivery. After delivery, mice born with lung autotumor were used as the test animals. One group consisted of 10 mice.
Four weeks after birth, a given amount of CNUA was administered in two ways, i.e., intravenous administration and peroral administration at predetermined times. Nine weeks after, the area of the tumor of each mouse was measued and the inhibition rate (%) was calculated.

[1] = system: leukemia L-1210, P 388, Lewis lung carcinoma, β-16 melanoma and mouse lung autotumor; assay: Antitumor effect, overall statement of the patent; assay type: in vivo, warm-blooded animals; mice
Toxicity tests (LD50) = conditions: mouse, in vivo, DDY male mice
Procedure: CNUA dissolved in isotonic sodium chloride solution was given to DDY male mice each weighing 20 to 22.5 g by intraperitoneal administration, intravenous administration and peroral administration, and LD50 values were determined.

[2] = system: Lewis lung carcinoma cells; assay: Test of therapeutical effects on Lewis lung carcinoma (Test Example 3); assay type: in vivo, BDF mice; conditions: for Number of survivals: 60 days
Description: (1) Test animals: About 6-week old BDF mice each weighing 22±1 g; one group comprising 7 male mice.
5×10^5 Lewis lung carcinoma cells per mouse were implanted under the skin of each mouse. […] The rate of apothanasia and number of survivals after 60 days were examined.
*"day 1-9" in the column of "Method of Administration" indicates
continuous administration once/day for 9 days subsequently to "day 1".

Leukemia P-388 cells = assay: Antileukemia test, P-388 (Test Example 2); assay type: in vivo, CDF mice; conditions: for ILS (rate of apothanasia): 24 hours after implantation; for Number of survivals: 60 days
Procedure: (1) Test animals: The same animals as in Test 1.
1×10^5 Leukemia P-388 cells per mouse were implanted into the abdomen of each mouse. After 24 hours, a given amount of CNUA dissolved in isotonic sodium chloride solution was administered to the mice. The rate of apothanasia (%) and number of survivals after 60 days were examined.

Leukemia L-1210 cells = assay: Antileukemia test, L-1210 (Test Example 1); assay type: in vivo, CDF mice; conditions: for Number of survivals: 60 days
Procedure: (1) Test animals: About 6-week old CDF mice each weighing 22±1 g; one group comprising 7 male mice.
1×10^5 Leukemia L-1210 cells per mouse were implanted into the abdomen of each mouse. After 24 hours, a given amount of CNUA dissolved in isotonic sodium chloride solution was administered to the mice in through three different methods, i.e. intraperitoneal administration, intravenous administration and peroral administration. The rate of apothanacia (%) and number of survivals after 60 days were examined.
^a Symbols in the column of "Method of Administration" have the
ip: Intraperitoneal administration,
iv: Intravenous administration,
po: Peroral administration,
day 1: A given amount of CNUA was administered once 24 hours after the
day 1-3: Continuous administration once a day for three days subsequently
^b Rate of apothanasia % (ILS) was calculated according to the
^c Number of survivals means the number of mice which survived for 60
days or longer in the group consisting of the 7 mice tested.

β-16 melanoma cells = assay: Test of therapeutical effects on melanoma (Test Example 4); assay type: in vivo, BDF mice; conditions: for Number of survivals: 60 days

## O=NN(CCCl)C(=O)N[C@@H]1[C@H](O)[C@@H](CO)OC(O)[C@@H]1O (stereo partly drawn) [CNUA, 3-[3-(2-chloroethyl)-3-nitrosoureido]-3-deoxy-D-allose]
Lung autotumor; iv, 5 weeks after birth, 40 × 1 mg/kg
  Inhibition rate: 37.2%
Lung autotumor; iv, 5 weeks after birth, 40 × 1 mg/kg, p < 0.05, control 1.45 ± 0.30
  Area of tumor (± S.E.): 0.91 ± 0.81 mm^2
Lung autotumor; iv, 5.6 weeks after birth, 40 × 2 mg/kg
  Inhibition rate: 49.2%
Lung autotumor; iv, 5.6 weeks after birth, 40 × 2 mg/kg, p < 0.01, control 1.45 ± 0.30
  Area of tumor (± S.E.): 0.75 ± 0.22 mm^2
Lung autotumor; iv, 5.7 weeks after birth, 40 × 2 mg/kg
  Inhibition rate: 46.5%
Lung autotumor; iv, 5.7 weeks after birth, 40 × 2 mg/kg, p < 0.01, control 1.45 ± 0.30
  Area of tumor (± S.E.): 0.79 ± 0.31 mm^2
Lung autotumor; po, 5,6,7,8 weeks after birth, 133 × 4 mg/kg
  Inhibition rate: 44.7%
Lung autotumor; po, 5,6,7,8 weeks after birth, 133 × 4 mg/kg, p < 0.01, control 1.41 ± 0.44
  Area of tumor (± S.E.): 0.78 ± 0.22 mm^2
Lung autotumor; po, 5,6,7,8 weeks after birth, 200 × 4 mg/kg
  Inhibition rate: 44.7%
Lung autotumor; po, 5,6,7,8 weeks after birth, 200 × 4 mg/kg, p < 0.01, control 1.41 ± 0.44
  Area of tumor (± S.E.): 0.78 ± 0.16 mm^2
Lung autotumor; po, 5,6,7,8 weeks after birth, 267 × 4 mg/kg
  Inhibition rate: 61.0%
Lung autotumor; po, 5,6,7,8 weeks after birth, 267 × 4 mg/kg, p < 0.01, control 1.41 ± 0.44
  Area of tumor (± S.E.): 0.55 ± 0.18 mm^2
Lung autotumor; po, 5,6,7,8 weeks after birth, 333 × 4 mg/kg
  Inhibition rate: 53.2%
Lung autotumor; po, 5,6,7,8 weeks after birth, 333 × 4 mg/kg, p < 0.01, control 1.41 ± 0.44
  Area of tumor (± S.E.): 0.66 ± 0.14 mm^2
[1]
  antitumor effects: powerful antitumor effects
Toxicity tests (LD50); ip
  LD50: 65.5 mg/kg
Toxicity tests (LD50); iv
  LD50: 80 mg/kg
Toxicity tests (LD50); po
  LD50: 550 mg/kg
[2]; 2.23 mg/kg/day, ip, day 1-9
  ILS (rate of apothanasia): 4%
  Number of survivals: 0/7
[2]; 4.45 mg/kg/day, ip, day 1-9
  ILS (rate of apothanasia): 21%
  Number of survivals: 1/7
[2]; 5 mg/kg/day, ip, day 1
  ILS (rate of apothanasia): 0%
  Number of survivals: 0/7
[2]; 6.67 mg/kg/day, ip, day 1-9
  ILS (rate of apothanasia): 29%
  Number of survivals: 0/7
[2]; 10 mg/kg/day, ip, day 1
  ILS (rate of apothanasia): 0%
  Number of survivals: 0/7
[2]; 15 mg/kg/day, iv, day 1
  ILS (rate of apothanasia): 35%
  Number of survivals: 0/7
[2]; 20 mg/kg/day, ip, day 1
  ILS (rate of apothanasia): 68%
  Number of survivals: 2/7
[2]; 30 mg/kg/day, iv, day 1
  ILS (rate of apothanasia): 80%
  Number of survivals: 1/7
[2]; 40 mg/kg/day, ip, day 1
  ILS (rate of apothanasia): > 172%
  Number of survivals: 6/7
[2]; 40 mg/kg/day, iv, day 1
  ILS (rate of apothanasia): > 200%
  Number of survivals: 6/7
[2]; 50 mg/kg/day, iv, day 1
  ILS (rate of apothanasia): > 200%
  Number of survivals: 5/7
Leukemia P-388 cells; 3.75 mg/kg/day
  ILS (rate of apothanasia): 50%
  Number of survivals: 0/7
Leukemia P-388 cells; 7.5 mg/kg/day
  ILS (rate of apothanasia): 90%
  Number of survivals: 0/7
Leukemia P-388 cells; 15 mg/kg/day
  ILS (rate of apothanasia): 240%
  Number of survivals: 3/7
Leukemia P-388 cells; 30 mg/kg/day
  ILS (rate of apothanasia): > 500%
  Number of survivals: 5/7
Leukemia P-388 cells; 45 mg/kg/day
  ILS (rate of apothanasia): > 500%
  Number of survivals: 7/7
Leukemia P-388 cells; 60 mg/kg/day
  ILS (rate of apothanasia): > 500%
  Number of survivals: 6/7
Leukemia L-1210 cells; 5 mg/kg/day, iv, day 1
  ILS (rate of apothanasia): 29%
  Number of survivals: 0/7
Leukemia L-1210 cells; 10 mg/kg/day, iv, day 1
  ILS (rate of apothanasia): 43%
  Number of survivals: 0/7
Leukemia L-1210 cells; 11.3 mg/kg/day, ip, day 1
  ILS (rate of apothanasia): 86%
  Number of survivals: 1/7
Leukemia L-1210 cells; 11.3 mg/kg/day, ip, day 1-3
  ILS (rate of apothanasia): 143%
  Number of survivals: 1/7
Leukemia L-1210 cells; 20 mg/kg/day, iv, day 1
  ILS (rate of apothanasia): 86%
  Number of survivals: 1/7
Leukemia L-1210 cells; 22.5 mg/kg/day, ip, day 1
  ILS (rate of apothanasia): 157%
  Number of survivals: 3/7
Leukemia L-1210 cells; 22.5 mg/kg/day, ip, day 1-3
  ILS (rate of apothanasia): > 757%
  Number of survivals: 5/7
Leukemia L-1210 cells; 40 mg/kg/day, iv, day 1
  ILS (rate of apothanasia): > 757%
  Number of survivals: 4/7
Leukemia L-1210 cells; 45 mg/kg/day, ip, day 1
  ILS (rate of apothanasia): > 757%
  Number of survivals: 7/7
Leukemia L-1210 cells; 45 mg/kg/day, ip, day 1-3
  ILS (rate of apothanasia): > 757%
  Number of survivals: 5/7
Leukemia L-1210 cells; 50 mg/kg/day, iv, day 1
  ILS (rate of apothanasia): 400%
  Number of survivals: 2/7
Leukemia L-1210 cells; 60 mg/kg/day, ip, day 1
  ILS (rate of apothanasia): > 757%
  Number of survivals: 4/7
Leukemia L-1210 cells; 60 mg/kg/day, ip, day 1-3
  ILS (rate of apothanasia): > 757%
  Number of survivals: 4/7
Leukemia L-1210 cells; 100 mg/kg/day, po, day 1
  ILS (rate of apothanasia): 86%
  Number of survivals: 0/7
Leukemia L-1210 cells; 200 mg/kg/day, po, day 1
  ILS (rate of apothanasia): 100%
  Number of survivals: 3/7
Leukemia L-1210 cells; 300 mg/kg/day, po, day 1
  ILS (rate of apothanasia): 100%
  Number of survivals: 2/7
Leukemia L-1210 cells; 400 mg/kg/day, po, day 1
  ILS (rate of apothanasia): 57%
  Number of survivals: 2/7
β-16 melanoma cells; 1.12 mg/kg/day, day 1-9, ip
  ILS (rate of apothanasia): 10%
  Number of survivals: 0/7
β-16 melanoma cells; 2.23 mg/kg/day, day 1-9, ip
  ILS (rate of apothanasia): 25%
  Number of survivals: 0/7
β-16 melanoma cells; 4.45 mg/kg/day, day 1-9, ip
  ILS (rate of apothanasia): 30%
  Number of survivals: 0/7
β-16 melanoma cells; 5 mg/kg/day, day 1, ip
  ILS (rate of apothanasia): 0%
  Number of survivals: 0/7
β-16 melanoma cells; 6.67 mg/kg/day, day 1-9, ip
  ILS (rate of apothanasia): 35%
  Number of survivals: 0/7
β-16 melanoma cells; 10 mg/kg/day, day 1, ip
  ILS (rate of apothanasia): 16%
  Number of survivals: 0/7
β-16 melanoma cells; 20 mg/kg/day, day 1, ip
  ILS (rate of apothanasia): 48%
  Number of survivals: 1/7
β-16 melanoma cells; 20 mg/kg/day, day 1, iv
  ILS (rate of apothanasia): 65%
  Number of survivals: 1/7
β-16 melanoma cells; 40 mg/kg/day, day 1, ip
  ILS (rate of apothanasia): 60%
  Number of survivals: 2/7
β-16 melanoma cells; 40 mg/kg/day, day 1, iv
  ILS (rate of apothanasia): 155%
  Number of survivals: 1/7
β-16 melanoma cells; 60 mg/kg/day, day 1, iv
  ILS (rate of apothanasia): 35%
  Number of survivals: 0/7
